Assay results as given in patent US8114629B2, “Site specific incorporation of keto amino acids into proteins” (The Scripps Research Institute, priority 2002, dated 2012).
In brackets after ≈: the same amount, converted by molar mass. Where two headings read alike, the source gives them in different places.

Columns and labels:
E. coli DH10B cells = assay: growth of cells in the presence of the unnatural amino acid during Z domain expression; settings: 1 mM; cells transformed with mutRNA^TyrCUA, LW1RS and Z domain gene (Lys7TAG)
Description: E. coli DH10B cells cotransformed with pLEIZ and pBK-LW1RS were grown in minimal media containing 1% glycerol and 0.3 mM leucine (GMML media) with 25 μg/mL kanamycin, 34 μg/mL of chloramphenicol, and 1.0 mM p-acetyl-(±)-phenylalanine. When cells reach an OD600 of 0.5, isopropyl-β-D-thiogalactopyranoside (IPTG) (1 mM) was added to induce protein expression.
Cells transformed with the mutRNA^TyrCUA, LW1RS and Z domain gene (Lys7TAG) were grown in the presence of 1 mM p-acetyl-(±)-phenylalanine.

[1] = test system: cells harboring the one of the three mutant TyrRS plasmids; assay: chloramphenicol resistance of cells harboring mutant TyrRS plasmids selected for m-acetyl phenylalanine; type: cell-based
Description: Preparation of mutant TyrRS library plasmids: A library of plasmids encoding mutant M. jannaschii TryRSs directed at meta-substituted tyrosine derivatives was constructed, generally following the methods described in Example 1 of WO 2002/085923. Briefly, six residues (Tyr^32, Ala^67, His^70, Gln^155, Asp^158, Ala^167) in the active site of M. jannaschii TyrRS that are within 6.9 Å of the meta-position of the aryl ring of bound tyrosine in the crystal structure of Bacillus stearothermophilus TyrRS were mutated to all 20 amino acids at DNA level using the NNK codon scheme as described in Example 1 above. The constructed plasmid library pBK-lib contained around 1×10^9 independent clones.
Evolution of orthogonal tRNA-synthetase pairs for incorporation of m-acetyl phenylalanine: After 3 rounds of positive selection and 2 rounds of negative selection, five candidate clones (SEQ ID NO: 17-21 of WO 2002/085923 and SEQ ID NO: 49-53 of WO 2002/085923) emerged whose survival in chloramphenicol was dependent on the addition of the unnatural amino acid. In the absence of m-acetyl phenylalanine, the IC50 of chloramphenicol resistance for cells harboring the one of the three mutant TyrRS plasmids is 20 μg/ml. In the presence of m-acetyl phenylalanine, the IC50 of resistance to chloramphenicol for the same cells is 100 μg/ml. […]

[2] = test system: E. coli cells expressing mutant TyrRS and mutRNA^TyrCUA; assay: in vivo assay based on suppression of the Asp112TAG codon in the CAT gene (chloramphenicol resistance), p-acetyl-L-phenylalanine synthetases; type: cell-based; settings: Escherichia coli, read-out: IC50 value chloramphenicol, eleven mutant TyrRS
mutRNA^TyrCUA/LW1RS = target: T1, mutRNA^TyrCUA/LW1RS (Methanocaldococcus jannaschii, UniProt Q57834, D158G/I159C/L162R/Y32L); type: cell-based, Methanococcus jannaschii; settings: mutant Z domain (Lys7TAG); from signal-to-noise ratio of more than 1500 in the intact protein mass spectrum
T1 construct: The mutant synthetase gene isolated from clone LW1 (LW1RS) was encoded in plasmid pBKLW1RS; expressed in transfected cells; host or cells: E. coli DH10B cotransformed with pLEIZ and pBK-LW1RS
T1 sequence (Q57834 whole entry Y32L/D158G/I159C/L162R): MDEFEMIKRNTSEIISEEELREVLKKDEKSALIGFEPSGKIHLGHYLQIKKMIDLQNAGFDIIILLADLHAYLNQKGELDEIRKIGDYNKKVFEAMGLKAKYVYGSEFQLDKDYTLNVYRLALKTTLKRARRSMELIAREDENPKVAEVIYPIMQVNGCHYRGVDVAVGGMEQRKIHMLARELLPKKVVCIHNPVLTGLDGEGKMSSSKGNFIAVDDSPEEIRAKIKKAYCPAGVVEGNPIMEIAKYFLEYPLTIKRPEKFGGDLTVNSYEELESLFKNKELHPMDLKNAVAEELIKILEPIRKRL
Description: Protein expression and purification: Plasmid pLEIZ was used to express the Z-domain gene with an amber codon at the 7th position and a COOH-terminal His6 tag under the control of a bacteriophage T5 promoter and t0 terminator, and the mutRNA^TyrCUA gene under the control of the lpp promoter and rrnC terminator. The mutant synthetase gene isolated from clone LW1 (LW1RS) was encoded in plasmid pBKLW1RS under the control of the constitutive E. coli GlnRS promoter and terminator. E. coli DH10B cells cotransformed with pLEIZ and pBK-LW1RS were grown in minimal media containing 1% glycerol and 0.3 mM leucine (GMML media) with 25 μg/mL kanamycin, 34 μg/mL of chloramphenicol, and 1.0 mM p-acetyl-(±)-phenylalanine. When cells reach an OD600 of 0.5, isopropyl-β-D-thiogalactopyranoside (IPTG) (1 mM) was added to induce protein expression. After 5 hours, cells were pelleted and the protein was purified by Ni^2+ affinity chromatography under denaturing conditions according to the manufacturer's protocol (Qiagen, Valencia, Calif.). […] The yield of protein was measured by Bradford assay (BCA kit, Biorad, Hercules, Calif.). […]
Both the wt Z domain protein expressed by mutRNA^TyrCUA/wt TyrRS and the mutant Z domain protein expressed by the mutRNA^TyrCUA/LW1RS were analyzed by electrospray ionization Fourier transform ion cyclotron resonance mass spectrometry (FT-ICR MS). […]

## CC(=O)c1ccc(CC(N)C(=O)O)cc1 (racemic) [p-acetyl-(±)-phenylalanine]
E. coli DH10B cells
  effect on growth rate of cells: did not affect the growth rate of cells

## O=C(N[C@H](CO)[C@H](O)c1ccc([N+](=O)[O-])cc1)C(Cl)Cl [chloramphenicol]
[1]; in the presence of m-acetyl phenylalanine, read-out: IC50 of resistance to chloramphenicol
  IC50: 100 µg/mL
[1]; read-out: IC50 of chloramphenicol resistance
  IC50: 20 µg/mL (≈ 61.9 µM)
[2]; in the absence of p-acetyl-L-phenylalanine
  IC50: 9 µg/mL (≈ 27.9 µM)
[2]; in the presence of p-acetyl-L-phenylalanine
  IC50: 120 µg/mL

## CC(=O)c1ccc(C[C@H](N)C(=O)O)cc1 [p-acetyl-L-phenylalanine]
mutRNA^TyrCUA/LW1RS
  fidelity for the incorporation: > 99.8%
